Experimental data reported in ChEMBL document CHEMBL3886587, “Antagonists of prostaglandin EP3 receptor” (2016).
pKi: −log10 of the molar value.

Target: T1, Prostaglandin E2 receptor EP3 subtype (Homo sapiens, UniProt P43115)
T1 sequence (P43115 whole entry): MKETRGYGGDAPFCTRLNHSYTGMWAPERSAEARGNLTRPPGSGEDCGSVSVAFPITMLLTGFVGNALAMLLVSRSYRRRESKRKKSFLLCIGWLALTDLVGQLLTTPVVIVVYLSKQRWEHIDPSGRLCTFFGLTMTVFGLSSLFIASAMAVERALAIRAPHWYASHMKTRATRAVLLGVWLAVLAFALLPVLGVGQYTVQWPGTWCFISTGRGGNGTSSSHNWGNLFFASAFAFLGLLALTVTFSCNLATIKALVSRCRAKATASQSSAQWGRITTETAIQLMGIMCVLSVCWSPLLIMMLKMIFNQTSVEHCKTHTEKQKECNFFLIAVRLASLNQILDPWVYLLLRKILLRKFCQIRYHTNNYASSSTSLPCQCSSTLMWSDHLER
Assay: EP3 Radioligand SPA Binding Assay: Test compounds were half log serially diluted in 100% DMSO (J. T. Baker #922401). 1 uL of each compound was added to appropriate wells of a 384-well plate (Matrix Cat #4322). Unlabeled PGE2 (Tocris Cat #2296) at a final concentration of 1 uM was used to determine non-specific binding. 1 uL of 100% DMSO (J. T. Baker #922401) was used to determine total binding. Millipore EP3 Chem1 membranes (prepared in-house from cell paste derived from the Millipore ChemiSCREEN Human Recombinant EP3 Prostanoid Receptor Calcium-Optimized Stable Cell Line (Millipore Cat #HTS092C. http://www.millipore.com/catalogue/item/hts092c)) were thawed and diluted in binding buffer (50 mM Hepes pH 7.4 (Lonza Cat #17-737), 5 mM MgCl2 (Sigma-M1028), and 0.1% BSA (Sigma A-7409)) to a final concentration of 1 ug/25 uL. 25 uL of diluted membranes were added to prepared compound plates. WGA coated PVT SPA Beads (Perkin Elmer Cat #RPNQ0060) were diluted in binding buffer to a concentration of 4 ug/ul, and 25 uL of the SPA bead mixture was then added to each well for a final assay concentration of 100 ug/well. [3H]-PGE2 (Perkin Elmer Cat #NET428) was diluted in binding buffer to a concentration of […], and 25 uL was added to all wells for a final assay concentration of 1.125 nM. Plates were incubated for 30 minutes at r.t. (approximately 25° C.) with shaking. […]

## Cn1ncc2c(F)cc(-c3ccc([C@@]4(C)CCCNC4=O)c(=O)[nH]3)cc21
  pKi: 7.86
